We go through 26 compounds from US20070054916A1, “Aryl nitrogen-containing bicyclic compounds and methods of use” (Amgen Inc., priority 2004, published 2007).

SMILES strings stand for the structures. A value given as a limit tells only on which side of the number the result lay.

The assay has as its system production of TNF by monocytes activated with bacterial lipopolysaccharide (LPS). The assay is described as follows: Lipopolysaccharide-activated monocyte TNF production assay. It counts as cell-based. The settings on record: Homo sapiens, read-out: IC50 values in the monocyte assay (LPS induced TNF release). In a few lines:
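Adherent human PBMC-derived monocytes (~70%) in DMEM/2% FCS were pre-incubated 60 min with nine two-fold compound dilutions, then stimulated with E. coli K532 LPS (added as 30 ng/ml solution) for 4 h at 37 °C. Supernatant TNF-α was measured by sandwich ELISA. IC50 was taken from a polynomial fit of TNF versus compound concentration.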
Turning to `Cc1ccc(C(=O)Nc2ccc3c(c2)N(C(=O)CN2CCOCC2)CC3(C)C)cc1-c1ccc2nc(N)ncc2c1` [Example 65, 3-(2-amino-6-quinazolinyl)-N-(3,3-dimethyl-1-(4-morpholinytacetyl)-2,3-dihydro-1H-indol-6-yl)-4-methylbenzamide], the half-maximal inhibitory concentration (IC50) (usually the midpoint of a concentration-inhibition curve) is not above 25 µM.

With `COCCNc1ncc2cc(-c3cc(C(=O)Nc4cccc(C(F)(F)F)c4F)ccc3C)ccc2n1` [Example 24, N-(2-fluoro-3-(trifluoromethyl)phenyl)-4-methyl-3-(2-((2-(methyloxy)ethyl)amino)-6-quinazolinyl) benzamide], the IC50 is not above 25 µM.

Consider `CCN(CC)CCOc1ccc(NC(=O)c2ccc(C)c(-c3ccc4nc(N)ncc4c3)c2)c(OC)c1` [Example 70, 3-(2-amino-6-quinazolinyl)-N-(4-((2-(diethylamino)ethyl)oxy)-2-(methyloxy)phenyl)-4-methylbenzamide], for which the IC50 was not above 25 µM.

In the case of `Cc1ccc(C(=O)Nc2cc(C(F)(F)F)ccc2OCCN2CCCC2)cc1-c1ccc2nc(N)ncc2c1` [Example 420, 3-(2-amino-6-quinazolinyl)-4-methyl-N-(2-((2-(1-pyrrolidinyl)ethyl)oxy)-5-(trifluoromethyl)phenyl)benzamide], the concentration for half-maximal inhibition (IC50) was not above 25 µM.

`Cc1ccc(C(=O)Nc2cccc3nonc23)cc1-c1ccc2nc(N)ncc2c1` [Example 303, 3-(2-amino-6-quinazolinyl)-N-(2,1,3-benzoxadiazol-4-yl)-4-methylbenzamide]: the IC50 is not above 25 µM.

As for `Cc1cc(NC(=O)c2ccc(C)c(-c3ccc4nc(N)ncc4c3)c2)ns1` [Example 344, 3-(2-amino-6-quinazolinyl)-4-methyl-N-(5-methyl-3-isothiazolyl) benzamide], the 50% inhibitory concentration (IC50) is not above 25 µM.

As to `Nc1ncc2cc(-c3cc(C(=O)Nc4cc(C(F)(F)F)ccc4N4CCCC4)ccc3Cl)ccc2n1` [Example 155, 3-(2-amino-6-quinazolinyl)-4-chloro-N-(2-(1-pyrrolidinyl)-5-(trifluoromethyl)phenyl)benzamide], the IC50 was not above 25 µM.

Regarding `Cc1ccc(C(=O)Nc2cc(C(F)(F)F)ccc2N2CCCCC2)cc1-c1ccc2nc(N)ncc2c1` [Example 76, 3-(2-amino-6-quinazolinyl)-4-methyl-N-(2-(1-piperidinyl)-5-(trifluoromethyl)phenyl)benzamide], the IC50 was not above 25 µM.

As for `CNc1ncc2cc(-c3cc(C(=O)NCc4ccccn4)ccc3C)cnc2n1` [Example 185, 4-methyl-3-(2-(methylamino)pyrido [2,3-d]pyrimidin-6-yl)-N-(2-pyridinylmethyl) benzamide], the IC50 is not above 25 µM.

As for `Cc1ccc(C(=O)Nc2ncc(Cl)cc2Cl)cc1-c1ccc2nc(N)ncc2c1` [Example 346, 3-(2-amino-6-quinazolinyl)-N-(3,5-dichloro-2-pyridinyl)-4-methylbenzamide], the IC50 is not above 25 µM.

For `Cc1ccc(C(=O)Nc2cc(C(C)(C)C)ccc2C(C)(C)C)cc1-c1ccc2nc(N)ncc2c1` [Example 78, 3-(2-amino-6-quinazolinyl)-N-(2,5-bis(1,1-dimethylethyl)phenyl)-4-methylbenzamide], the IC50 is not above 25 µM.

On to `CNc1ncc2cc(-c3cc(NC(=O)c4cccc(Cl)c4Cl)ccc3C)cnc2n1` [Example 201, 2,3-dichloro-N-(4-methyl-3-(2-(methylamino)pyrido[2,3-d]pyrimidin-6-yl)phenyl)benzamide], for which the IC50 was not above 25 µM.

As for `Cc1c(NC(=O)c2ccc(Cl)c(-c3ccc4nc(N)ncc4c3)c2)cccc1C(F)(F)F` [Example 141, 3-(2-amino-6-quinazolinyl)-4-chloro-N-(2-methyl-3-(trifluoromethyl)phenyl)benzamide], the IC50 was not above 25 µM.

`CNc1ncc2cc(-c3cc(NC(=O)c4cc(OC)c(OC)c(OC)c4)ccc3C)cnc2n1` [Example 216, N-(4-methyl-3-(2-(methylamino)pyrido[2,3-d]pyrimidin-6-yl)phenyl)-3,4,5-tris(methyloxy)benzamide]: the IC50 is not above 25 µM.

`CNc1ncc2cc(-c3cc(C(=O)Nc4ccc(NC(=O)NCCN5CCOCC5)c(C(F)(F)F)c4)ccc3C)cnc2n1` [Example 187, 4-methyl-3-(2-(methylamino)pyrido [2,3-d]pyrimidin-6-yl)-N-(4-((((2-(4-morpholinyl)ethyl)amino)carbonyl)amino)-3-(trifluoromethyl)phenyl)benzamide]: the IC50 was not above 25 µM.

`Cc1ccc(C(=O)NCc2ccncc2)cc1-c1ccc2nc(N)ncc2c1` [Example 425, 3-(2-amino-6-quinazolinyl)-4-methyl-N-(4-pyridinylmethyl) benzamide]: the IC50 is not above 25 µM.

For `CCN(CC)CCNC(=O)c1cc(NC(=O)c2ccc(C)c(-c3ccc4nc(N)ncc4c3)c2)cc(C(F)(F)F)c1` [Example 7], the IC50 is not above 25 µM.

Take `Cc1ccc(C(=O)Nc2cc(C(F)(F)F)ccc2N2CCOCC2)cc1-c1ccc2nc(N)ncc2c1` [Example 79, 3-(2-amino-6-quinazolinyl)-4-methyl-N-(2-(4-morpholinyl)-5-(trifluoromethyl)phenyl)benzamide]: the IC50 was not above 25 µM.

With `Cc1ccc(C(=O)Nc2cc(C(=O)N3CCN(C)CC3)cc(C(F)(F)F)c2)cc1-c1ccc2nc(N)ncc2c1` [Example 158, 3-(2-amino-6-quinazolinyl)-4-methyl-N-(3-((4-methyl-1-piperazinyl)carbonyl)-5-(trifluoromethyl)phenyl)benzamide], the IC50 was not above 25 µM.

As to `Cc1ccc(C(=O)Nc2cccc(C(F)(F)F)c2C)cc1-c1ccc2nc(NCCN3CCCC3)ncc2c1` [Example 33, 4-methyl-N-(2-methyl-3-(trifluoromethyl)phenyl)-3-(2-((2-(1-pyrrolidinyl)ethyl)amino)-6-quinazolinyl) benzamide], the IC50 is not above 25 µM.

In the case of `COc1ccc(OCCCN2CCN(C)CC2)cc1NC(=O)c1ccc(C)c(-c2ccc3nc(N)ncc3c2)c1` [Example 235], the IC50 was not above 25 µM.

On to `CNc1ncc2cc(-c3cc(NC(=O)c4cccc5c4OC(F)(F)O5)ccc3C)cnc2n1` [Example 214, 2,2-difluoro-N-(4-methyl-3-(2-(methylamino)pyrido[2,3-d]pyrimidin-6-yl)phenyl)-1,3-benzodioxole-4-carboxamide], for which the IC50 was not above 25 µM.

Regarding `Cc1ccc(C(=O)Nc2cc(C(C)(C)C)ccc2N(C)CCCN(C)C)cc1-c1ccc2nc(N)ncc2c1` [Example 244, 3-(2-amino-6-quinazolinyl)-N-(2-((3-(dimethylamino)propyl)(methyl)amino)-5-(1,1-dimethylethyl)phenyl)-4-methylbenzamide], the IC50 is not above 25 µM.

Turning to `Cc1ccc(C(=O)Nc2cc(C(F)(F)F)ccc2N2CC[C@@H](N(C)C)C2)cc1-c1ccc2nc(N)ncc2c1` [Example 75, 3-(2-amino-6-quinazolinyl)-N-(2-((3R)-3-(dimethylamino)-1-pyrrolidinyl)-5-(trifluoromethyl)phenyl)-4-methylbenzamide], the IC50 was not above 25 µM.

As for `COc1ccc(C(C)(C)C)cc1NC(=O)c1ccc(Cl)c(-c2ccc3nc(N)ncc3c2)c1` [Example 139, 3-(2-amino-6-quinazolinyl)-4-chloro-N-(5-(1,1-dimethylethyl)-2-(methyloxy)phenyl)benzamide], the IC50 was not above 25 µM.

Consider `CCN(CC)CCOc1ccc(OC)c(NC(=O)c2ccc(C)c(-c3ccc4nc(N)ncc4c3)c2)c1` [Example 71, 3-(2-amino-6-quinazolinyl)-N-(5-((2-(diethylamino)ethyl)oxy)-2-(methyloxy)phenyl)-4-methylbenzamide], for which the concentration for half-maximal inhibition (IC50) was not above 25 µM.
